Results published in patent US5776957A, “Nornicotine enantiomers for use as a treatment for dopamine related conditions and disease states” (The University of Kentucky Research Foundation, priority 1996, dated 1998).
Entries after “also recorded” stand apart in the source; their conditions may differ. Read-outs that look alike come from different tables or passages of the source.

What was measured:
[1] = NIC and metabolites in rat brain after s.c. injection of radiolabelled NIC; assay type: in vivo
Description: NIC metabolism studies involving HPLRC analysis invariably utilize NIC with a radiolabel (i.e., [^3 H], [^14 C] or [^11 C]) incorporated in the methyl group. However N-demethylated NIC metabolites (norNIC and norCOT) cannot be detected after injection of such radionuclides, since the label is lost in the formation of these metabolites. NIC and four NIC metabolites have recently been detected in rat brain 4 hr after s.c. injection of [2'-^14 C]NIC (FIG. 3, Table I). Three of these metabolites have been identified as COT, norNIC and norCOT. A fourth minor metabolite (Peak B) has not been completely identified but appears to be an N-demethylated metabolite, since it is not detected in the [^3 H-N-methyl]NIC studies.
COT, and therefore, is unlikely to originate from COT N-demethylation. 3-HydroxyCOT and its glucuronide conjugate were not detected as metabolites of either NIC or COT in brain, even though these are major biotransformation products in the periphery (Crooks, 1993).
It appears that NIC metabolites which accumulate with a time course that correlates with the development of behavioral sensitization to NIC have a role in eliciting sensitization to NIC. The inventors have detected NIC, COT, norNIC and norCOT in brain 4 hr following acute s.c. injection of (±)[2'-^14 C]NIC. S(-) [^3 H] -N-methyl]NIC is unsuitable for studying brain metabolism of NIC, since nor-metabolites (i.e., demethylated metabolites) cannot be detected due to [^3 H]-loss during metabolism (Crooks et al., 1995b, AP 7). Thus, commercially available (±)[2'-^14 C]NIC was used to determine NIC metabolites present in brain. This form of radiolabelled NIC provides a metabolically stable [^14 C]-label which allows measurement of all potential NIC metabolites.
A second "metabolite" (Peak A, FIG. 2) was also detected at each time point and most likely results from a combination of metabolic cleavage of the N-methyl group and dissociated-[^3 H], i e, Peak A represents an oxidized 1-carbon unit and indicates the extent of NIC N-demethylation. Note, in our subsequent studies with [2'-^14 C]NIC, Peak A was not observed, which is consistent with our interpretation of the results (Table 1).

[2] = system: [3H]DA-preloaded rat striatal slices (nicotinic receptors); experiment: [3H]overflow (DA release) from [3H]DA-preloaded rat striatal slices; assay type: cell-based
Experimental: In vitro pharmacological effects of NIC are generally investigated using either striatal slices or synaptosome preparations preloaded with [^3 H] DA. NIC-evoked [^3 H]overflow is obtained routinely in the presence of nomifensine (10 μM; a DA uptake inhibitor) and for pargyline (10 μM, a monoamine oxidase inhibitor) in the superfusion buffer, such that [^3 H]overflow represents primarily [^3 H]DA rather than [H]DA-metabolites (Zumstein et al., 1981, Hoffmann and Cubeddu, 1982, Dwoskin and Zahniser, 1986, Rapier et al., 1988), and for this reason, [^3 H]overflow also will be referred to as [^3 H] DA release in the proposal.
The present studies use striatal slices superfused with various concentrations of NIC or norNIC for prolonged periods.
FIG. 4. […] Insets illustrate the response to the low concentration range. […] NIC exposure indicated by the bar under time course. Note: 1-min sample collection period. […] N=4 rats.
Rat striatal slices were depolarized with 10 μM NIC, 20 mM K+or 1 Hz, 60 pulses or 3 Hz, 180 pulses electrical field stimulation. […] N=4.
MEC or DHβE was included in the superfusion buffer for 60 min prior to the addition of NIC, and superfusion continued for 60 min in the presence of NIC+antagonist.

[3] = cited from earlier work
[4] = Amphetamine drug discrimination (substitution tests); assay type: in vivo, rat
Experimental: Rats were trained in on two-lever food-reinforced operant tasks to discriminate amphetamine (1 mg/kg) from saline. After discrimination training stabilized, test doses of amphetamine (0.0625-2.0 mg/kg), nicotine (0.1-1.0 mg/kg) or nornicotine (1-10 mg/kg) were assessed for their ability to substitute for the amphetamine training dose during brief test sessions in which food reinforcement was withheld.
Nine male Sprague-Hawley rats were obtained from Harlan Industries (Indianapolis, Ind.) and were caged individually with water continuously available. Food access was restricted in order to maintain body weights at approximately 80% of free-feeding weight. Prior to the start of the experiment, all rats received a single injection of amphetamine (1 mg.kg, IP) as part of an unrelated experiment. Apparatus Six operant chambers (ENV-001, Med Associates, St. Albans, Vt.) enclosed in a sound attenuating environment were used. Located in the bottom center of the front panel in each chamber was a 5×4.-cm opening to a recessed food tray. Two metal response levers were located on the front panel, one on each side of the food tray. The center of each lever was mounted 7.3 cm from the grid floor. A 28-Vcue light, 3 cm in diameter, was centered 6 cm above each lever. A personal computer, interfaced to the chamber with Med Associates equipment, controlled the experimental sessions and collected data.
The general procedures utilized to establish amphetamine discrimination were similar to those outlined previously (13). Briefly, rats were first given access to food pellets (45 mg sucrose pellet, Noyes Co., Lancaster, N.H.) dispensed noncontingently into the food tray with both levers present. One lever was then removed and the rat was shaped to depress the other lever for food reinforcement. Following this, rats received 15-min daily sessions in which the lever (left or right) available for food reinforcement was alternated daily. […] The start of each session was signaled by the onset of both cue lights mounted above the levers, and the termination of each session was signaled by the offset of these lights. This training phase was continued until the rat earned 20 reinforces on an FR25 schedule for two days.
Amphetamine discrimination training was conducted Monday through Friday. For this training, both levers were mounted in the chamber. Amphetamine (A; 1 mg/kg) or saline (S), was injected IP 15 min prior to the start of the session, with the order of injections being either AASS or SSAA. The left lever was designated as the amphetamine-correct lever for 4 rats, while the right lever was amphetamine -correct for 5 rats. On Monday, Wednesday and Friday, injection-appropriate responding was food-reinforcedon an FR25 schedule for the entire 15-min session. However, 2-min extinction periods were instituted at the beginning of sessions on Tuesday and Thursday (one amphetamine and one saline test per week) to assess the control of amphetamine (or saline) over responding. […] During the remaining 13 min of these sessions, contingent reinforcement for injection-appropriate responding was reinstated. This phase of training was continued until the rat completed the first FR25 on the correct lever for 10 consecutive sessions and also completed 80% or more responses on the injection-appropriate lever during 4 consecutive extinction periods.
The substitution phase was identical to the previously described amphetamine discrimination phase, except for the Friday session, which was decreased to a 4-min extinction session with no food available.

[5] = system: mouse striatal synaptosomes; conditions: Grady et al., 1992, cited from earlier work
[6] = rat brain, 4 hrs after s.c. injection, Table 1, footnote e
[7] = rat brain, 4 hrs after s.c. injection, Table 1, footnote f

O=C1CCC(c2cccnc2)N1 (stereo not shown) [NorCOT, norcotinine]
presence as metabolite in brain ([1]; rat brain, after s.c. radiolabelled NIC): minor CNS metabolite of NIC

CO[C@H]1CC=C2CCN3CCC4=C(CC(=O)OC4)[C@]23C1 [DHβE, dihydro-β-erythroidine]
inhibition of NIC-evoked [3H]overflow ([2]; 10 μM NIC, concentration-dependent): robustly inhibited
effect on [3H]DA release itself ([2]; 100 μM): evoked the release of [^3 H]DA itself
inhibition of norNIC-evoked [3H]overflow ([2]; high concentrations (100 μM-3 mM) of norNIC): ineffective in inhibiting
inhibition of norNIC-evoked [3H]overflow ([2]; low concentrations (<100 μM) of norNIC): effectively inhibited
mode of antagonism of norNIC response ([2]; norNIC concentration-response curve): competitive

CN1CCC[14CH]1c1cccnc1 (racemic) [[^14 C-2']-NIC]
Percent of Total Radiolabel: COT [1, 6]: 60.8 ± 0.63%
Percent of Total Radiolabel: NIC [1, 6]: 24.2 ± 2.94%
Percent of Total Radiolabel: Peak A [1, 6]: 0.0 ± 0.0%
Percent of Total Radiolabel: Peak B [1, 6]: 0.0 ± 0.0%
Percent of Total Radiolabel: norNIC [1, 6]: 15.1 ± 2.54%
Percent of Total Radiolabel: COT [1, 7]: 62.9 ± 5.27%
Percent of Total Radiolabel: NIC [1, 7]: 14.2 ± 3.30%
Percent of Total Radiolabel: Peak A [1, 7]: 0.0 ± 0.0%
Percent of Total Radiolabel: Peak B [1, 7]: 2.33 ± 0.12%
Percent of Total Radiolabel: norCOT [1, 7]: 4.15 ± 0.48%
Percent of Total Radiolabel: norNIC [1, 7]: 16.5 ± 2.04%

CC(N)Cc1ccccc1 (stereo not drawn) [amphetamine, d-Amphetamine]
cross-sensitization between nicotine and amphetamine [3]: has not been observed
substitution for amphetamine training dose ([4]; 1 and 2 mg/kg): substituting fully; also recorded: substituted fully
amphetamine-appropriate responding ([4]; 1 and 2 mg/kg IP, 15 min): greater than 80%
total number of lever presses ([4]; 15 min): dose-related decrease in total number of lever presses

CN1C(=O)C(O)CC1c1cccnc1 (stereo not shown) [3-HydroxyCOT]
presence as metabolite in brain ([1]; rat, in vivo, sc): not detected

c1cncc(C2CCCN2)c1 (racemic) [(±) norNIC]
evoked [3H]overflow / [3H]DA release [5]: concentration dependent increase
evoked [3H]overflow / [3H]DA release ([5]; listed as (+) nornicotine): concentration-dependent increase

CCN1CCC[C@H]1CNC(=O)c1c(O)c(Cl)cc(Cl)c1OC [raclopride]
effect on overflow evoked by 1 or 3 Hz stimulation ([2]; 1 μM, electrical field stimulation): increases overflow
